Data reported in paper PMC12073189, “Synthesis and Evaluation of a Novel Zuranolone Analog with High GABAA Receptor PAM Activity and Excellent Pharmacokinetic Profiles” (Molecules, 2025).

What was measured:
[1] = Liver microsome metabolic stability (RLM); format: in vitro ADME, rat; design: microsomal CLint at 1 μmol/L: unit not given here; details: for half-life at 1 μmol/L: read-out: RLM T1/2
Procedure: (§1) We quantified S1–S15 and Zuranolone using a UPLC-MS/MS (Agilent 1290 Infinity II UHPLC (Agilent Technologies, Santa Clara, CA, USA) coupled with a QTRAP 5500 MS/MS (ESI source) (SCIEX, Redwood City, CA, USA for MS/MS). The method assessed the content level of S9 and Zuranolone in microsome metabolism and in rat brain tissue and plasma. An ACQUITY UPLC Peptide BEH C18 column (Waters; 50 × 2.1 mm, 1.7 μm; 60 °C; Waters Corporation, Milford, MA, USA) was used with a mobile phase of 0.02% propionic acid in water (A) and acetonitrile (B). The gradient elution of the mobile phase B is carried out as follows: it is 10% from 0 to 0.5 min, 90% from 0.8 to 2.5 min, and 10% from 2.8 to 3.5 min, with a flow rate of 0.40 mL/min. Quantitative analysis was performed on a QTRAP 5500 MS (SCIEX, Redwood City, CA, USA) in positive ionization mode with MRM (multiple reaction monitoring), using progesterone-d9 as the internal standard. MRM transitions and parameters were optimized for each analyte, with collision energies of 25 V (S1–S15), 23 V (Zuranolone), and 30 V (IS), and declustering potentials of 80 V (S1–S15), 90 V (Zuranolone), and 180 V (IS). Other conditions were as follows: curtain gas 10 psi, collision gas ‘medium’, ion spray voltage 5500 V, temperature 500 °C, and ionization source gases 1 and 2 at 50 psi.
(§2) To evaluate the metabolic stability of compounds S1–S15 and Zuranolone in RLM and HLM, we designed the following in vitro liver microsome metabolism assay protocol. In a 1.5 mL centrifuge tube, sequentially add 173 μL of PBS (0.1 M, pH 7.4), 5 μL of liver microsomes (20 mg/mL), and 2 μL of the test compound (100 μmol/L). After thorough mixing, pre-incubate at 37 °C for 10 min. Subsequently, add 20 μL of NADPH to initiate the metabolism, with a parallel control without NADPH, to validate the background signal. Samples were collected at 0, 5, 10, 20, 30, and 60 min post-reaction initiation. At each designated time point, we quenched the reaction with ice-cold acetonitrile (600 μL). After centrifuging the mixture, we analyzed the supernatant using UPLC-MS/MS. For data analysis, the compound concentration at 0 min was set as 100%, with concentrations at subsequent time points expressed as residual percentages relative to the initial value, and the in vitro half-life (T1/2) and intrinsic clearance (CLint) were calculated.

[2] = Liver microsome metabolic stability (HLM); format: in vitro ADME, human; design: microsomal CLint at 1 μmol/L: unit not given here; details: for half-life at 1 μmol/L: read-out: HLM T1/2
Procedure: as §1, §2

[3] = Plasma pharmacokinetic study in rats; format: in vivo, rat; details: for AUC(0-t) / C0 / half-life / Cmax / Tmax: rat plasma, n = 6; for bioavailability / Tmax: rat, plasma; for bioavailability: oral, 24.4 μmol/kg, i.g. 24.4 vs i.v. 6.1 μmol/kg, read-out: F (oral absolute bioavailability)
Procedure: as §1
Zuranolone was solubilized in 5% DMSO with solutol HS 15 in saline. S9 was solubilized in 10% DMSA with 30% SBECD (Zibo Qianhui Biological Technology Co., Ltd., Zibo, China) in saline. After fasting for 12 h, rats (n = 6 per group) were administered Zuranolone and S9 intragastrically (i.g.) at a dose of 24.4 μmol/kg, and intravenously (i.v.) at 6.1 μmol/kg. Blood samples (200 μL) were collected into 1.5 mL tubes containing heparin at 15 min, 30 min, 1, 2, 3, 4, 6, 8, 12, 24, 48, and 96 h after i.g. or at 5, 15, 30 min, and 1, 2, 3, 4, 6, 8, 12, 24, 48, 96 h after i.v. Plasma was separated by centrifugation for 5 min (8000 rpm, 4 °C) and stored at −80 °C immediately.
Experimental data were analyzed by GraphPad Prism software 9.0 and presented as means ± SD. Statistical differences were determined by one-way ANOVA followed by Dunnett’s post-hoc test, with p < 0.05 considered statistically significant. Main pharmacokinetic parameters were calculated using Phoenix WinNonlin 8.1 (non-compartmental model), and the absolute bioavailability of S9 was determined by the following formula: (AUC i.g. (0–t) × dose i.v.)/(AUC i.v. (0–t) × dose i.g.) × 100%.

loss of righting reflex = test: Loss of righting reflex (LORR) test; format: in vivo, rat; details: rats; for LORR threshold dose: intragastric
Procedure: We randomly assigned rats into 6 groups (n = 10): Zuranolone groups at doses of 9.8, 15.6, and 19.5 μmol/kg and S9 groups at doses of 38.9, 48.6, and 58.3 μmol/kg. The number of animals showing LORR, defined as the inability to turn over within 30 s while in the supine position, was recorded within 4 h following intragastric administration of the test drugs or vehicle.

[4] = iv, 6.1 umol/kg, i.v. 6.1 μmol/kg
[5] = po, 24.4 umol/kg, i.g. 24.4 μmol/kg

Row | SMILES | half-life at 1 μmol/L ([1]; pH 7.4, rat liver microsomes) | half-life at 1 μmol/L ([2]; pH 7.4, human liver microsomes) | AUC(0-t) [3, 4] | C0 [3, 4] | half-life [3, 4] | AUC(0-t) [3, 5] | Cmax [3, 5] | half-life [3, 5] | bioavailability ([3]; rats) | Tmax [3, 5] | LORR threshold dose (loss of righting reflex) | other results
1 | C[C@@]1(O)CC[C@H]2[C@H](CC[C@@H]3[C@@H]2CC[C@]2(C)[C@@H](C(=O)Cn4cnn(-c5ccnc(OCC(F)(F)F)c5)c4=O)CC[C@@H]32)C1 [S9] | 3.1 h | 2.57 h | 24.2 µM·h | 2.86 ± 0.223 µM | 16.4 ± 0.56 h | 80.4 µM·h | 3.6 ± 0.541 µM | 19.8 ± 1.5 h | 82.9% | ~3.7 h | 38.9 µmol/kg | fold longer T1/2 than Zuranolone ([1]; RLM): 4 fold; fold lower CLint than Zuranolone ([1]; RLM): 6.5 fold; microsomal CLint at 1 μmol/L ([1]; pH 7.4, rat liver microsomes, read-out: RLM intrinsic clearance (CLint)): 8000; fold longer T1/2 than Zuranolone ([2]; HLM): 1.2 fold; fold lower CLint than Zuranolone ([2]; HLM): 1.2 fold; microsomal CLint at 1 μmol/L ([2]; pH 7.4, human liver microsomes): 9000; increase in AUC compared to S28 ([3]; S28 previously reported ref 25): over 2 fold; increase in T1/2 compared to S28 ([3]; S28 previously reported ref 25): over 2 fold; AUC0–t as fold of Zuranolone ([3]; rats, i.g. 24.4 μmol/kg): approximately 6.7 fold; T1/2 as fold of Zuranolone ([3]; rats, i.g. 24.4 μmol/kg): approximately 5.2 fold; AUC0–t as fold of Zuranolone ([3]; rats, i.v. 6.1 μmol/kg): approximately 4.7 fold; T1/2 as fold of Zuranolone ([3]; rats, i.v. 6.1 μmol/kg): approximately 6.6 fold; AUC higher than Zuranolone ([3]; rats, route not given): 6 fold; plasma T1/2 longer than Zuranolone ([3]; rats, route not given): 5 fold; Latency to LORR (loss of righting reflex; i.g. 48.6 μmol/kg): 68 min; Latency to LORR (loss of righting reflex; i.g. 58.3 μmol/kg): 59 min
2 | C[C@@]1(O)CC[C@H]2[C@H](CC[C@@H]3[C@@H]2CC[C@]2(C)[C@@H](C(=O)Cn4cc(C#N)cn4)CC[C@@H]32)C1 [Zuranolone] | 0.8 h | 2.07 h | 5.18 ± 1.73 µM·h | 3.43 ± 1.74 µM | 2.5 ± 1.3 h | 12 µM·h | 2.28 ± 0.554 µM | 3.8 ± 1.7 h | 57.7% | ~1.2 h | 9.8 µmol/kg | Latency to LORR (loss of righting reflex; i.g. 15.6 μmol/kg): 35 min; Latency to LORR (loss of righting reflex; i.g. 19.5 μmol/kg): 30 min
